{"source": "patent US5219854A", "about": "“Blood platelet-decreasing method” (Nissan Chemical Industries Ltd., priority 1991, dated 1993)", "key": {"[1]": {"test_system": "blood platelet count", "assay": "Change of blood platelet count at the time of repeated administration of Compound A", "type": "in vivo, human (healthy adult males)", "procedure": "(§1) To each of six healthy adult males (23 to 32 years age, average: 28 years age), two tablets each containing 20 mg of 4-bromo-5-(3-ethoxy-4-methoxybenzylamino)-3(2H)-pyridazinone (Compound A) were orally administered (40 mg) three times a day (120 mg) in the morning, noon and evening for 7 days (on the 7th day, administered only in the morning). Examinations were conducted with respect to the following four items from the time before the administration to the time until the 29th day after the termination of administration.\n(1) Hematological Examination\n(§2) Erythrocyte count, leukocyte count, hemoglobin quantity, hematocrit value, blood platelet count, reticulocyte count, leukocyte fraction and prothrombin time"}, "[2]": {"assay": "Subjective symptoms, diagnosis by doctor, scientific and clinical examination during repeated oral administration", "type": "in vivo, human (healthy adult males)", "conditions": "oral 40 mg three times a day for 7 days; until 29th day after the termination", "procedure": "as §1\nEveryday during the period of examination, each testee records the subjective symptoms.\nA doctor makes diagnoses by asking, or ansculating and percussioning, and records their observations.\nBlood pressure, pulse rate, body temperature, breathing rate, ECG (12 derivatives), pulmonary function (FVC, FEV1.0%), and visual or acoustic observation\nas §2\nTotal protein, albumin, A/G ratio (protein fraction), BUN, creatinine, uric acid, total cholesterol, neutral fats, Na, K, Cl, Al-P, LAP, GOT, GPT, LDH, γ-GTP, ZTT, TTT, CPK, total bilirubin, direct bilirubin and blood sugar\nSpecific gravity, pH, bilirubin, urobilinogen, ketone body, sugar, protein and sedimentation"}, "[3]": {"assay": "Acute toxicity test after single oral administration, mouse", "conditions": "in vivo, mouse (ICR strain, 6 weeks old), read-out: 50% lethal dose (LD50)", "procedure": "(§3) These compounds have low toxicities and thus may be sufficiently used for medical products. For example, the 50% lethal dose (LD50) in the acute toxicity tests after single oral administration of 4 brome-5-(3-ethoxy-4-methoxybenzylamino)-3(2H)-pyridazinone as a typical compound thereof, was 2,000 mg/kg with respect to each of mouse (ICR strain, 6 weeks old), rat (SD strain, 6 weeks old) and dog (beagle, 6 months old)."}, "[4]": {"assay": "Acute toxicity test after single oral administration, rat", "conditions": "in vivo, rat (SD strain, 6 weeks old), read-out: 50% lethal dose (LD50)", "procedure": "as §3"}, "[5]": {"assay": "Acute toxicity test after single oral administration, dog", "conditions": "in vivo, dog (beagle, 6 months old), read-out: 50% lethal dose (LD50)", "procedure": "as §3"}}, "data": [{"smiles": "CCOc1cc(CNc2cn[nH]c(=O)c2Br)ccc1OC", "note": "[Compound A, 4-bromo-5-(3-ethoxy-4-methoxybenzylamino)-3(2H)-pyridazinone]", "values": [{"measurement": "Blood platelet count, average value ± a standard deviation", "setting": "[1]; 1st day after the termination of administration, oral 40 mg three times a day for 7 days, ***p < 0.001 vs before administration (paired t-test)", "value": "14.1 ± 2.0 ×10^4 /μl"}, {"measurement": "Blood platelet count, average value ± a standard deviation", "setting": "[1]; 6th day after the termination of administration, oral 40 mg three times a day for 7 days, **p < 0.01 vs before administration (paired t-test)", "value": "20.4 ± 2.2 ×10^4 /μl"}, {"measurement": "Blood platelet count, average value ± a standard deviation", "setting": "[1]; 29th day after the termination of administration, oral 40 mg three times a day for 7 days", "value": "29.2 ± 3.9 ×10^4 /μl"}, {"measurement": "Blood platelet count, average value ± a standard deviation", "setting": "[1]; 3 days after the initiation of administration, oral 40 mg three times a day (120 mg/day), **p < 0.01 vs before administration (paired t-test)", "value": "25.0 ± 2.7 ×10^4 /μl"}, {"measurement": "Blood platelet count, average value ± a standard deviation", "setting": "[1]; before the initiation of administration (baseline), six healthy adult males", "value": "27.6 ± 2.6 ×10^4 /μl"}, {"measurement": "Symptoms or changes in all items of examinations other than the blood platelet count", "setting": "[2]", "value": "no problematic symptom or change has been observed"}, {"measurement": "LD50", "setting": "[3]", "value": 2000, "unit": "mg/kg"}, {"measurement": "LD50", "setting": "[4]", "value": 2000, "unit": "mg/kg"}, {"measurement": "LD50", "setting": "[5]", "value": 2000, "unit": "mg/kg"}]}]}
